Source: patent US9278962B2 (Cytokinetics, Inc., priority 2011, dated 2016)

Test system: rabbit skeletal myofibrils (approximately 90% fast fibers)
Assay: Activation of fast skeletal myofibrils (PUMA coupled-enzyme ATPase assay, AC1.4)
Type: biochemical
Conditions: concentration at which the compound increased enzymatic activity by 40%, calcium at pCa25

Row | Compound | Mean AC1.4 (Table 2) | other results
1 | CNC(=O)c1ccc(-c2nsc(NCC(C)(C)c3ccc(F)cc3)n2)cn1 [[5-(5-{[2-(4-fluorophenyl)-2-methylpropyl]amino}(1,2,4-thiadiazol-3-yl))(2-pyridyl)]-N-methylcarboxamide] | B (B=1-10 uM) | –
2 | Clc1ccc(CCNc2nc(Cc3ccc(Cl)cc3)ns2)cc1 [[2-(4-chlorophenyl)ethyl]{3-[(4-chlorophenyl)methyl](1,2,4-thiadiazol-5-yl)}amine] | C (C=10-20 uM) | –
3 | CC(C)(O)c1ccc2nc(NCC(C)(C)c3ccc(F)cc3)sc2c1 [2-(2-(2-(4-fluorophenyl)-2-methylpropylamino)benzo[d]thiazol-6-yl)propan-2-ol] | – | Mean AC1.4 (Table 4): A (A=<1 uM)
4 | C[C@@H](CNc1nc(Cc2cccc(O)c2)ns1)c1ccc(F)cc1 [3-[(5-{[(2R)-2-(4-fluorophenyl)propyl]amino}-1,2,4-thiadiazol-3-yl)methyl]phenol] | A (A=<1 uM) | –
5 | NC(=O)c1ccc(F)c(-c2nnc(NCC3(c4ncccc4F)CCC3)s2)c1 [4-fluoro-3-(5-((1-(3-fluoropyridin-2-yl)cyclobutyl)methylamino)-1,3,4-thiadiazol-2-yl)benzamide] | – | Mean AC1.4 (Table 3): A (A=<1 uM)
6 | N#Cc1cc(C(N)=O)cc2sc(NCC3(c4ncccc4F)CCC3)nc12 [4-cyano-2-((1-(3-fluoropyridin-2-yl)cyclobutyl)methylamino)benzo[d] thiazole-6-carboxamide] | – | Mean AC1.4 (Table 4): A (A=<1 uM)
7 | CC(C)(CNc1nc(-c2cccc(C#N)c2)ns1)c1ccc(F)cc1 [3-(5-{[2-(4-fluorophenyl)-2-methylpropyl]amino}-1,2,4-thiadiazol-3-yl)benzenecarbonitrile] | B (B=1-10 uM) | –
8 | CC(C)(CNc1nc2ccc(Cl)cc2s1)c1ccc(F)cc1 [6-chloro-N-(2-(4-fluorophenyl)-2-methylpropyl)benzo[d]thiazol-2-amine] | – | Mean AC1.4 (Table 4): A (A=<1 uM)
9 | NS(=O)(=O)c1ccc(CCNc2nc(Cc3ccc(F)cc3)ns2)cc1 [4-[2-({3-[(4-fluorophenyl)methyl]-1,2,4-thiadiazol-5-yl}amino)ethyl]benzenesulfonamide] | D (D=>20 uM) | –
10 | CN(CCO)c1nsc(NCC(C)(C)c2ccc(F)cc2)n1 | D (D=>20 uM) | –
11 | Cc1cc(Br)sc1-c1nnc(NC[C@]2(c3ncccc3F)C[C@H](F)C2)s1 [5-(5-bromo-3-methylthiophen-2-yl)-N-((3-fluoro-1-(3-fluoropyridin-2-yl)cyclobutyl)methyl)-1,3,4-thiadiazol-2-amine] | – | Mean AC1.4 (Table 3): B (B=1-10 uM)
12 | CNC(=O)c1ccc(-c2nsc(NCC(C)(C)c3ccc(F)cc3)n2)cc1 [[4-(5-{[2-(4-fluorophenyl)-2-methylpropyl]amino}(1,2,4-thiadiazol-3-yl))phenyl]-N-methylcarboxamide] | A (A=<1 uM) | –
13 | Fc1cccnc1C1(CNc2ncc(-c3ccccc3)s2)CCC1 [N-((1-(3-fluoropyridin-2-yl)cyclobutyl)methyl)-5-phenylthiazol-2-amine] | – | Mean AC1.4 (Table 5): A (A=<1 uM)
14 | CC(C)(CNc1nc(-c2ccc(F)c(C#N)c2)ns1)c1ccc(F)cc1 [2-fluoro-5-(5-{[2-(4-fluorophenyl)-2-methylpropyl]amino}(1,2,4-thiadiazol-3-yl))benzenecarbonitrile] | B (B=1-10 uM) | –
15 | CN1CCN(Cc2nsc(NCC(C)(C)c3ccc(F)cc3)n2)CC1 [[2-(4-fluorophenyl)-2-methylpropyl]{3-[(4-methylpiperazinyl)methyl](1,2,4-thiadiazol-5-yl)}amine] | C (C=10-20 uM) | –
16 | Fc1ccc(Cc2nsc(NCCc3ccccc3Cl)n2)cc1 [[2-(2-chlorophenyl)ethyl]{3-[(4-fluorophenyl)methyl](1,2,4-thiadiazol-5-yl)}amine] | D (D=>20 uM) | –
17 | CC(C)(CNc1nc(CN2CCNCC2)ns1)c1ccc(F)cc1 [[2-(4-fluorophenyl)-2-methylpropyl][3-(piperazinylmethyl)(1,2,4-thiadiazol-5-yl)]amine] | C (C=10-20 uM) | –
18 | CN(C)Cc1nsc(NCC(C)(C)c2ccc(F)cc2)n1 [[(5-{[2-(4-fluorophenyl)-2-methylpropyl]amino}(1,2,4-thiadiazol-3-yl))methyl]dimethylamine] | D (D=>20 uM) | –
19 | NC(=O)c1ccc(Cl)c(-c2nnc(NC[C@]3(c4ncccc4F)C[C@H](F)C3)s2)c1 [4-chloro-3-(5-((3-fluoro-1-(3-fluoropyridin-2-yl)cyclobutyl)methylamino)-1,3,4-thiadiazol-2-yl)benzamide] | – | Mean AC1.4 (Table 3): A (A=<1 uM)

Row | Compound | Mean AC1.4 (Table 2) | other results
20 | N#Cc1ccc2sc(NC[C@]3(c4ncccc4F)C[C@H](F)C3)nc2c1 [2-((3-fluoro-1-(3-fluoropyridin-2-yl)cyclobutyl)methylamino)benzo[d] thiazole-5-carbonitrile] | – | Mean AC1.4 (Table 4): C (C=10-20 uM)
21 | Fc1cccnc1C1(CNc2nnc(-c3cscn3)s2)CCC1 [N-((1-(3-fluoropyridin-2-yl)cyclobutyl)methyl)-5-(thiazol-4-yl)-1,3,4-thiadiazol-2-amine] | – | Mean AC1.4 (Table 3): B (B=1-10 uM)
22 | Cc1ccc(Cc2nsc(NCCc3ccc(Cl)c(Cl)c3)n2)cc1 [[2-(3,4-dichlorophenyl)ethyl]{3-[(4-methylphenyl)methyl](1,2,4-thiadiazol-5-yl)}amine] | B (B=1-10 uM) | –
23 | NC(=O)c1ccc2nc(NCC3(c4ccc(F)cc4)CCC3)sc2c1 [2-((1-(4-fluorophenyl)cyclobutyl)methylamino) benzo[d]thiazole-6-carboxamide] | – | Mean AC1.4 (Table 4): A (A=<1 uM)
24 | NC(=O)c1ccc(-c2nnc(NC[C@]3(c4ncccc4F)C[C@H](F)C3)s2)s1 [5-(5-((3-fluoro-1-(3-fluoropyridin-2-yl)cyclobutyl)methylamino)-1,3,4-thiadiazol-2-yl)thiophene-2-carboxamide] | – | Mean AC1.4 (Table 3): B (B=1-10 uM)
25 | Fc1ccc(Cc2nsc(NCCc3ccncc3)n2)cc1 [{3-[(4-fluorophenyl)methyl](1,2,4-thiadiazol-5-yl)}(2-(4-pyridyl)ethyl)amine] | D (D=>20 uM) | –
26 | Fc1cccnc1[C@]1(CNc2nnc(-c3ccc(Br)s3)s2)C[C@H](F)C1 [5-(5-bromothiophen-2-yl)-N-(((cis)-3-fluoro-1-(3-fluoropyridin-2-yl)cyclobutyl)methyl)-1,3,4-thiadiazol-2-amine] | – | Mean AC1.4 (Table 3): C (C=10-20 uM)
27 | CC(C)(CNc1nc(CNCCO)ns1)c1ccc(F)cc1 [2-{[(5-{[2-(4-fluorophenyl)-2-methylpropyl]amino}-1,2,4-thiadiazol-3-yl)methyl]amino}ethan-1-ol] | D (D=>20 uM) | –
28 | CC(C)(CNc1nc(CNC(=O)CN)ns1)c1ccc(F)cc1 [2-amino-N-[(5-{[2-(4-fluorophenyl)-2-methylpropyl]amino}(1,2,4-thiadiazol-3-yl))methyl]acetamide] | C (C=10-20 uM) | –
29 | CN(C)c1nc(-c2cccc(C(N)=O)c2)ns1 [3-[5-(dimethylamino)-1,2,4-thiadiazol-3-yl]benzamide] | D (D=>20 uM) | –
30 | CC(C)(CNc1nc2cccc(Cl)c2s1)c1ccc(F)cc1 [7-chloro-N-(2-(4-fluorophenyl)-2-methylpropyl)benzo[d]thiazol-2-amine] | – | Mean AC1.4 (Table 4): B (B=1-10 uM)
31 | Fc1ccc(Br)cc1-c1nnc(NC[C@]2(c3ncccc3F)C[C@H](F)C2)s1 [5-(5-bromo-2-fluorophenyl)-N-(((trans)-3-fluoro-1-(3-fluoropyridin-2-yl)cyclobutyl)methyl)-1,3,4-thiadiazol-2-amine] | – | Mean AC1.4 (Table 3): A (A=<1 uM)
32 | Cc1ccc(-c2nnc(NC[C@]3(c4ncccc4F)C[C@H](F)C3)s2)s1 [N-(((trans)-3-fluoro-1-(3-fluoropyridin-2-yl)cyclobutyl)methyl)-5-(5-methylthiophen-2-yl)-1,3,4-thiadiazol-2-amine] | – | Mean AC1.4 (Table 3): B (B=1-10 uM)
33 | NC(=O)c1cccc(-c2nc(NCCc3ccccc3)ns2)c1 [3-(3-(phenethylamino)-1,2,4-thiadiazol-5-yl)benzamide] | D (D=>20 uM) | –
34 | COc1cccc(Cc2nsc(Nc3ccc(Cl)cc3)n2)c1 [(4-chlorophenyl){3-[(3-methoxyphenyl)methyl](1,2,4-thiadiazol-5-yl)}amine] | D (D=>20 uM) | –
35 | N#Cc1ccc(C#N)c(-c2nnc(NC[C@]3(c4ncccc4F)C[C@H](F)C3)s2)c1 [2-(5-((3-fluoro-1-(3-fluoropyridin-2-yl)cyclobutyl)methylamino)-1,3,4-thiadiazol-2-yl)terephthalonitrile] | – | Mean AC1.4 (Table 3): B (B=1-10 uM)
36 | COc1cccc(Cc2nsc(NCCc3ccc(Cl)cc3)n2)c1 [[2-(4-chlorophenyl)ethyl]{3-[(3-methoxyphenyl)methyl](1,2,4-thiadiazol-5-yl)}amine] | B (B=1-10 uM) | –
37 | NC(=O)c1cccc2nc(NC[C@]3(c4ncccc4F)C[C@H](F)C3)sc12 [2-((3-fluoro-1-(3-fluoropyridin-2-yl)cyclobutyl)methylamino)benzo[d] thiazole-7-carboxamide] | – | Mean AC1.4 (Table 4): D (D=>20 uM)
